Tests used:
[1] = system: Colon adenocarcinoma 26 (mouse colon adenocarcinoma); test: Tumor weight of transplanted Colon adenocarcinoma 26 in BALB/c mice; format: in vivo; details: Table 5, 5-FU 150 mg/Kg, hEGF-II 100 μg/Kg subcutaneous, average ± standard error of 6-12 mice
Description: After BALB/c mice were preliminarily fed in a thermostat (23°±0.5° C.), humidistat (60±5%) room for 1 week, those which appear to be healthy weighing 18-20 g were provided for the present experiment in 6-12 mice per 1 group.
(§1) Colon adenocarcinoma 26 (mouse colon adenocarcinoma) was minced into pieces and about 0.1 to 0.2 ml thereof was transplanted subcutaneously on the right side of mouse abdomen by a cell transplanting needle (trocker). Six days after transplantation, the size of tumor, namely longer diameter (a mm) and shorter diameter (b mm) of tumor were measured and the tumor weight was calculated according to the formula shown below [Instruction 14 (NCI) 1980].
(§2) Tumor weight (mg)=ab^2 /2
Before carrying out experiments, tumor weights were measured immediately before administration of the compounds and the mice were grouped into 3 groups by use of random numbers so that there may be no difference in average value of the tumor weights on initiation of experiments between the respective groups to make even the average values of tumor weights of the respective groups, and thereafter the compounds were administered to the respective groups.
In this FIGURE, the axis of abscissa indicates the experimental days with the day of compound administration being the day 1, and the axis of ordinate indicates tumor cell growth ratio which is the ratio of the tumor weight after elapse of the respective days relative to the tumor weight on the day 1 as being 100%.

[2] = system: Colon adenocarcinoma 38 (mouse colon adenocarcinoma); test: Tumor weight of transplanted Colon adenocarcinoma 38 in C57BL/6 mice; format: in vivo; details: for Tumor weight (day 1 = 100): 5-FU 150 mg/Kg
Description: as §1, with “38” for “26”, “Eleven” for “Six”
as §2
In the Table, days indicate the experimental days with the day of compound administration being as the day 1, and the tumor weight immediately before administration of compound of day 1 is made 100. The respective values show the average value ± standard error of case numbers of 10 to 20, in the Table, the marks of (*), * and *** indicate the statistical significance difference of the combined administration group relative to the 5-FU single administration group (the definition of P is as defined above).

[3] = system: P388/5-FU (mouse leukemia resistant to 5-FU); test: Tumor weight of solid tumor of 5-FU resistant mouse leukemia in CDF1 mice; format: in vivo; details: 5-FU 150 mg/Kg
Text: CDF1 strain male mice were employed. The feeding conditions, etc., were the same as in Experimental Example 1.
Of P388 (mouse leukemia), the strain having chemical resistance to 5-FU (P388/5-FU) was previously grown in the abdomen of CDF1 mouse. Eight days after transplantation into the abdomen, ascites (containing tumor cells) were collected, diluted with a liquid medium and transplanted subcutaneously at the axilla of mouse in 3×10^6 cells per mouse. Eight days after transplantation, the size of tumor was measured according to the same method as in Example 1 (Colon 26) and the tumor weight was calculated.
The grouping operation of mouse on initiation of experiments was conducted in the same manner as in Experimental Example 1. As for administration of compounds, the same procedure as in Experimental Example 1 was used. However, the administration was effected twice on the day 1 and the day 3.

[4] = Body weight (minus tumor weight) of Colon 26 bearing mice; format: in vivo, mouse; details: Experimental Example 5; 150 mg/Kg 5-FU, 100 μg/Kg hEGF subcutaneous
Description: That is, in Experimental Example 1, with the value of the body weight of the experimental animal immediately before administration of the drug from which the tumor weight is detracted as being 100, the ratio of the value of the total body weight of the experimental animal from which the tumor weight is detracted on the respective days after administration of the drug relative to this weight was calculated to obtain the results shown in FIG. 4. The symbols in the Figure are the same as in Experimental Example 1.

[5] = system: mouse ovarian tumor M5076; test: Tumor weight of solid tumor of mouse ovarian tumor in BDF1 mice; format: in vivo; details: Table 10, 5-FU 150 mg/Kg, hEGF, [Leu^21 ]-hEGF or hEGF-II 100 μg/Kg subcutaneous, average ± standard error
Description: BDF1 male mice were employed. The feeding conditions were the same as in Experimental Example 1.
Mouse ovarian tumor M5076 was transplanted subcutaneously at the axialla of mouse in 1-2×10^6 cells per mouse. 12 days after transplantation, the size of tumor was measured according to the same method as in Experimental Example 1 (Colon 26) and the tumor weight was calculated.
The grouping operation on initiation of Experiments was conducted in the same manner as in Experimental Example 1. The compounds were administered in the same manner as in Experimental Example 9.
The experiment was carried out in the samme manner as in Experimental Examples 1, 7 and as in Experimental Example 17 for others.

SMILES: O=c1[nH]cc(F)c(=O)[nH]1 [5-FU, 5-fluorouracil]
- Tumor weight (day 1 = 100) ([1]; day 2): 121.1 ± 9.6
- Tumor weight (day 1 = 100) ([1]; day 3): 120.4 ± 7.1
- Tumor weight (day 1 = 100) ([1]; day 4): 124.0 ± 9.6
- Tumor weight (day 1 = 100) ([1]; day 5): 122.5 ± 10.7
- Tumor weight (day 1 = 100) ([1]; day 6): 129.7 ± 11.5
- Tumor weight (day 1 = 100) ([1]; day 7): 156.8 ± 14.1
- Tumor weight (day 1 = 100) ([2]; Table 1, day 2, hEGF 100 μg/Kg subcutaneous on day 1, average ± standard error): 106.3 ± 31.8
- Tumor weight (day 1 = 100) ([2]; Table 1, day 4, hEGF 100 μg/Kg subcutaneous on day 1, average ± standard error): 84.5 ± 7.0
- Tumor weight (day 1 = 100) ([2]; Table 1, day 5, hEGF 100 μg/Kg subcutaneous on day 1, average ± standard error): 75.4 ± 10.3
- Tumor weight (day 1 = 100) ([2]; Table 1, day 6, hEGF 100 μg/Kg subcutaneous on day 1, average ± standard error): 86.2 ± 9.5
- Tumor weight (day 1 = 100) ([2]; Table 1, day 7, hEGF 100 μg/Kg subcutaneous on day 1, average ± standard error): 121.1 ± 13.0
- Tumor weight (day 1 = 100) ([2]; Table 1, day 8, hEGF 100 μg/Kg subcutaneous on day 1, average ± standard error): 147.3 ± 16.0
- Tumor weight (day 1 = 100) ([2]; Table 1, day 9, hEGF 100 μg/Kg subcutaneous on day 1, average ± standard error): 210.9 ± 22.9
- Tumor weight (day 1 = 100) ([2]; Table 11, day 2, FGF 100 μm/10 ml/Kg subcutaneous, average ± standard error of 6-8 mice): 102.6 ± 6.7
- Tumor weight (day 1 = 100) ([2]; Table 11, day 3, FGF 100 μm/10 ml/Kg subcutaneous, average ± standard error of 6-8 mice): 99.7 ± 7.2
- Tumor weight (day 1 = 100) ([2]; Table 11, day 4, FGF 100 μm/10 ml/Kg subcutaneous, average ± standard error of 6-8 mice): 94.9 ± 8.7
- Tumor weight (day 1 = 100) ([2]; Table 11, day 5, FGF 100 μm/10 ml/Kg subcutaneous, average ± standard error of 6-8 mice): 158.6 ± 22.8
- Tumor weight ratio(%) ([2]; Table 12, day 4 after compound administration, weight before administration = 100, Tegafur 400, 5-FU 150, Mitomycin-C 5, Cisplatin 5 mg/Kg, hIGF-II 50 μg/Kg subcutaneous, average ± standard error of 8-10 mice): 84.5 ± 7.0%
- Tumor weight ratio(%) ([2]; Table 14, hTGFα 100 μg/10 ml/Kg with 5-FU, Tegafur, Mitomycin-C, Adriamycin or Cisplatin, as described for Table 12): 84.6 ± 7.0%
- Tumor weight ratio(%) ([2]; Table 15, day 4 after compound administration, hTGFβ and hEGF 100 μg/Kg with each compound having antitumor action): 103.3 ± 15.4%
- Tumor weight % (average value ± standard error) ([2]; Table 20, 4 days after administration of 5-FU, 5-FU single subcutaneous): 93.9 ± 6.7%
- Tumor weight (day 1 = 100) ([3]; Table 2, day 2, hEGF 100 μg/Kg subcutaneous on day 1 and day 3, average ± standard error of 9 mice): 126.2 ± 5.5
- Tumor weight (day 1 = 100) ([3]; Table 2, day 3, hEGF 100 μg/Kg subcutaneous on day 1 and day 3, average ± standard error of 9 mice): 232.7 ± 15.9
- Tumor weight (day 1 = 100) ([3]; Table 2, day 4, hEGF 100 μg/Kg subcutaneous on day 1 and day 3, average ± standard error of 9 mice): 280.0 ± 31.7
- Tumor weight (day 1 = 100) ([3]; Table 3, day 2, [Leu^21 ]-hEGF or hEGF-II 100 μg/Kg subcutaneous on day 1 and day 3, average ± standard error): 121.2 ± 10.5
- Tumor weight (day 1 = 100) ([3]; Table 3, day 3, [Leu^21 ]-hEGF or hEGF-II 100 μg/Kg subcutaneous on day 1 and day 3, average ± standard error): 232.7 ± 15.9
- Tumor weight (day 1 = 100) ([3]; Table 3, day 4, [Leu^21 ]-hEGF or hEGF-II 100 μg/Kg subcutaneous on day 1 and day 3, average ± standard error): 280.0 ± 31.7
- body weight reduction inhibiting effect (body weight minus tumor weight, FIG. 4) [4]: no inhibiting effect of weight reduction could be recognized
- Tumor weight (day 1 = 100) ([5]; day 2): 114.7 ± 7.5
- Tumor weight (day 1 = 100) ([5]; day 3): 115.2 ± 8.3
- Tumor weight (day 1 = 100) ([5]; day 4): 134.6 ± 8.9
- Tumor weight (day 1 = 100) ([5]; day 5): 187.3 ± 19.3
- Tumor weight (day 1 = 100) ([5]; day 6): 230.1 ± 29.4

— patent US4863902A, “Treatment of cancer” (Wakunaga Seiyaku Kabushiki Kaisha, priority 1985, dated 1989)
